According to US6576668B1, “Remedies for arthrosis deformans” (Santen Pharmaceutical Co., Ltd., priority 1999, dated 2003):

Experiments:
[1] = system: degradation of proteoglycan in chondrocytes; assay: Degradation of proteoglycan in IL-1β-treated chondrocytes (GAG concentration in supernatant); type: cell-based; conditions: Oryctolagus cuniculus, Chondrocyte, 48 h, rabbit chondrocytes, IL-1β 1 ng/ml, two days culture, average of three samples, read-out: Degradation inhibition rate (%) (proteoglycan)
Description: In order to study utility of the present compound, actions of the present compound on MMP-3 production and degradation of proteoglycan after IL-1β treatment were studied by using chondrocytes separated from femurs of rabbit knee joints according to the report of Nose et al. (J. Rheumatology, 24, 550-554 (1997)). The action on MMP-3 production was studied by measuring MMP-3 activity. The action on degradation of proteoglycan was studied by measuring glycosaminoglycan (GAG) being a degradation product of proteoglycan. Femurs of knee joints of male Japanese white rabbits were enucleated. Surface cartilage of the femur was sliced into small pieces, and then tissues were dissociated by enzyme treatment to prepare chondrocytes. A mammal cell culture basal medium D-MEM (Dulbecco's Modified Eagle Medium, produced by Gibco Co., Ltd.) containing β-ketoglutaric acid (5 μg/ml), L-ascorbic acid (50 μg/ml), lactoalbumin hydrolyzate (0.2 mg/ml), penicillin (100 U/ml) and streptomycin (100 μg/ml) (hereinafter referred to as “medium A”) was prepared. […] A GAG concentration in the supernatant was measured according to the method of Farndale et al. (Biochim. Biophys. Acta, 883, 173-177 (1986)). […]

[2] = system: MMP-3 production of chondrocytes; assay: MMP-3 production of IL-1β-treated chondrocytes (MMP-3 activity in culture supernatant); type: cell-based; conditions: Oryctolagus cuniculus, Chondrocyte, 48 h, rabbit chondrocytes, IL-1β 1 ng/ml, two days culture, average of three samples, read-out: Production inhibition rate (%) (MMP-3)
Description: In order to study utility of the present compound, actions of the present compound on MMP-3 production and degradation of proteoglycan after IL-1β treatment were studied by using chondrocytes separated from femurs of rabbit knee joints according to the report of Nose et al. (J. Rheumatology, 24, 550-554 (1997)). The action on MMP-3 production was studied by measuring MMP-3 activity. The action on degradation of proteoglycan was studied by measuring glycosaminoglycan (GAG) being a degradation product of proteoglycan. Femurs of knee joints of male Japanese white rabbits were enucleated. Surface cartilage of the femur was sliced into small pieces, and then tissues were dissociated by enzyme treatment to prepare chondrocytes. A mammal cell culture basal medium D-MEM (Dulbecco's Modified Eagle Medium, produced by Gibco Co., Ltd.) containing β-ketoglutaric acid (5 μg/ml), L-ascorbic acid (50 μg/ml), lactoalbumin hydrolyzate (0.2 mg/ml), penicillin (100 U/ml) and streptomycin (100 μg/ml) (hereinafter referred to as “medium A”) was prepared. […] A culture supernatant was collected, and MMP-3 activity in the supernatant was measured with MMP-3 assay Kit (produced by Yagai Co., Ltd.). […]

[3] = system: mobility of knee joint, rabbit-immobilized models; assay: Improvement effect on mobility of knee joint in rabbit-immobilized models; type: in vivo, NZW rabbits; conditions: for Mobility of knee joint (degree): measured on 29th day, control 42, average of ten samples
Description: In order to study in vivo effects of the present compound on osteoarthritis, an improvement effect on a mobility of a knee joint was investigated by using rabbit-immobilized models. A test compound was suspended in a 1% aqueous methyl cellulose solution to prepare test compound solutions having desired concentrations. Knee joints of right hind paws of NZW rabbits (13 weeks old, body weight: 2.97 to 3.27 kg) were fixed in an extended position with plaster bandages under sodium pentobarbital (25 mg/kg) anesthesia. Administering orally the test compound (amount of liquid to be administered: 10 ml/kg) to the rabbits for four weeks, the rabbits were sacrificed by exsanguination on the 29th day, and then mobilities of the knee joints were measured. A similar experiment was carried out by using a 1% aqueous methyl cellulose solution (10 ml/kg) as a control instead of the test compound. The mobility of the knee joint was determined from a difference between a maximum flection angle obtained when a paw joint of the rabbit was vertically loaded with a load of 400 g and a maximum extension angle.

CC(C)(S)C(=O)N[C@@H](CS)C(=O)O [Bucillamine, bucillamine]
inhibition at 3 µM [1]: 19%
inhibition at 3 µM [2]: 28%
Mobility of knee joint (degree) ([3]; 10 mg/kg orally for four weeks): 46 degree
Mobility of knee joint (degree) ([3]; 30 mg/kg orally for four weeks): 48 degree
Mobility of knee joint (degree) ([3]; 100 mg/kg orally for four weeks): 53 degree
Effect on mobility of the rabbit knee joint (in words) ([3]; 10 to 100 mg/kg orally for four weeks): improves the mobility of the rabbit knee joint dose-dependently
